Results on one molecule are retold here after US20090247520A1, “INHIBITORS OF ANTIGEN RECEPTOR-INDUCED NF-kappa B ACTIVATION” (The Burnham Institute for Medical Research, priority 2008, published 2009).

What is called inhibition is the share of the control response that was lost under treatment. Read a low inhibition as a response near the control. Broadly, the IC50 is the concentration that gives 50% inhibition.

Where two headings read alike, the source gives them in different places. Bounds are passed on as bounds.

One assay deals with T1, JAK2 (Homo sapiens, UniProt O60674).
T1 construct: proprietary tag (Ambit); purchased Ambit, Inc
Kind of assay: KINOMEscan competition binding assay, JAK2. An excerpt: CID-2858522 is not a potent protein kinase inhibitor. Protein kinases play critical roles in NF-κB activation. PKCs are proximal kinases in the NF-κB pathways activated by PMA/Ionomycin and by T- and B-cell antigen receptors, while the IKKs are distal kinases operating in the terminal segments of these and other NF-κB activation pathways. We therefore tested whether CID-2858522 inhibits members of these kinase families by in vitro kinase assays. For these experiments, we tested PKC-beta and PKC-theta (the PKC family members implicated in TCR/BCR signaling), and IKK-beta (a component of the IKK complex) (FIG. 6). […] In addition to assessing these three kinases by conventional in vitro kinase assays, a kinome screen was performed using a high throughput screening method, KINOMEscan™, which is an active-site dependent competition binding assay in which human kinases of interest are fused to a proprietary tag (Ambit). The amount of kinase bound to an immobilized, active-site directed ligand is measured in the presence and absence of the test compound. […] Thus, CID-2858522 inhibits none of the protein kinases previously implicated in regulating NF-κB.
In Vitro Kinase Assays. PKC-beta, PKC-theta and IKK-beta in vitro kinase assays were performed using the HTScan Kinase Assay Kit (Cell Signaling, Danvers, Mass.) according to manufacturer's protocols. […]

The test system of assay [1] is PDB-induced NF-κB reporter gene activity. The assay can be described thus: PDBu-induced NF-κB reporter gene activity in HEK293 cells. The class given is cell-based. The following applies: Homo sapiens. As to the method:
(A) Structures of two hit compounds, CID-2858522 (left) and CID-2998237 (right) are shown; (B, C) 293-NF-κB-luc cells were pretreated for 2 hrs with various concentration of either CID-2858522 (B) or CID-29982387 (C) and then stimulated with TNF (10 ng/mL) or PMA/lonomycin (10 ng/mL; 5 ng/mL) for 16 h. Luciferase activity was measured and data were expressed as a percentage relative to control treatment with DMSO only (mean±SD; n=3). (D) 293-NF-κB-luc cells were pretreated for 2 h with various concentrations of CID-2858522 or CID-2998237, then stimulated with PMA/lonomycin for 16 h. IL-8 release into the medium was measured, expressing data as a percentage relative to control cultures treated with DMSO (mean±SD; n=3). (E) 293-NF-κB-luc cells were pretreated with CID-2858522 and then stimulated with PDBu for 16 h, IL-8 production and NF-κB luciferase activity were measured as above. (F) 293-NF-κB-luc cells were pretreated for 2 h with various concentrations of CID-2858522 or a PKC inhibitor (Bisindolylmaleimide I) at 1 μM followed by PMA/Ionomycin (10 ng/mL) stimulation for 2 h, then p65-DNA-binding activity was measured in nuclear extracts (10 μg protein), expressing data as fold-increase relative to unstimulated cells (mean±SD; n=3).
HTS. […] Plates were analyzed within 30 seconds with a Criterion Analyst™ using the luminescence method (0.1 second read/well).
Background: Reporter assays use an easily measured gene product as a stand-in for the process of interest.

For another assay, the system named is IKK-β phosphorylation. Kind of assay: PMA/Ionomycin-induced IKK-β phosphorylation in HEK293 cells. The class given is cell-based. The following applies: 4 μM. The method, then: FIG. 7. CID-285852 inhibits IKKβ phosphorylation induced by PKC activators. (A) HEK293 cells were cultured in 0.5% FBS medium for 24 h and then treated with CID-2858522 (4 μM) or PKC inhibitor, Bisindolylmaleimide I (1 μM) for 2 hrs followed by PMA/Ionomycin (10 ng/mL; 5 ng/mL) for 2 h. Cell lysates were subjected to immunoprecipitation using anti-CARMA1 antibody and analyzed by immunoblotting with anti-phospho-CARMA1 antibody or anti-CARMA1 antibody. (B-E) HEK293 cells were transfected with plasmids encoding myc-CARMA1 in combination with plasmids encoding various other proteins including Caspase-8 (cys287ala) (B), HA-IKK-γ (C), HA-TAK1 (D), and TRAF6 (E). After 36 h. cells were cultured in 0.5% FBS medium for 12 h and then treated with CID-2858522 (4 μM) or Bisindolylmaleimide I (1 μM) for 2 hrs, followed by PMA/Ionomycin treatment (10 ng/mL; 5 ng/mL) for 2 hrs. Cell lysates were immunoprecipated using anti-myc antibody and analyzed by immunoblotting using anti-Caspase8 (B), anti-HA (C,D), or anti-TRAF6 (E) antibodies. […] Cell lysates were normalized for protein content and analyzed by immunoblotting using anti-FLIP and anti-alpha-tubulin antibodies. […] Cell lysates were immunoprecipitated using anti-IKK-β and analyzed by immunoblotting using anti-phospho-IKK-β antibody or anti-IKK-β antibody (as loading control). […]

T1 sequence (O60674 whole entry): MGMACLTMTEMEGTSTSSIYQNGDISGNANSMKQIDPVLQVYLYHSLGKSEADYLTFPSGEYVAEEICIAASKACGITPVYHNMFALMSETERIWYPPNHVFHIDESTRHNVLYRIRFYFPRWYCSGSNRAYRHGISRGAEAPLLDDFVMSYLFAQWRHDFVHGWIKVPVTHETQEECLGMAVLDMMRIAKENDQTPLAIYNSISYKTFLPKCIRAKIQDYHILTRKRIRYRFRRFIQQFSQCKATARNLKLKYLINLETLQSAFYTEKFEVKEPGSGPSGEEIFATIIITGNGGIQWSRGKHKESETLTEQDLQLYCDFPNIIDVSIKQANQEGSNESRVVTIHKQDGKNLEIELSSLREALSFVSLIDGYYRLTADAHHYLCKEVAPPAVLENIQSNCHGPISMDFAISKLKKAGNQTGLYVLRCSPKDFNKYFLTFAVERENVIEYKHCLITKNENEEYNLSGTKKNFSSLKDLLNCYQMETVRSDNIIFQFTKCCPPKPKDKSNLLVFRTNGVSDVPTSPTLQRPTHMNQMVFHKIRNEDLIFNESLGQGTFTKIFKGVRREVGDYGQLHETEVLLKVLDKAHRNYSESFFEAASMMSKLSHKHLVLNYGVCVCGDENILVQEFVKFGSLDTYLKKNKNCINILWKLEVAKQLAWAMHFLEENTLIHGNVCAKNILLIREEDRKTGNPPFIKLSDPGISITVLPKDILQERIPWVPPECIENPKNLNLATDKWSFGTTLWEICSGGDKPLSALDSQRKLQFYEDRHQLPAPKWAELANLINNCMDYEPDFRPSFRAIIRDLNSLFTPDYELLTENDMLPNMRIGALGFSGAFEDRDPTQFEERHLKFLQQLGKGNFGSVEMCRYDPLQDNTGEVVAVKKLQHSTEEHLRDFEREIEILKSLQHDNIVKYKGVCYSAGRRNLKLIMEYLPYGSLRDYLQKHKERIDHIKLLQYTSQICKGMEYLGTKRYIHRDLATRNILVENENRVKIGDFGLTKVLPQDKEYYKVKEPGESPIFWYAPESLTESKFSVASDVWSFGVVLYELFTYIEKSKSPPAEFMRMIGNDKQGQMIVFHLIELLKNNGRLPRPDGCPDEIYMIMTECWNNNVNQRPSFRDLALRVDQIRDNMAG

On JAK2, `Cc1cc2nc(NCCCO)n(CC(=O)c3cc(C(C)(C)C)c(O)c(C(C)(C)C)c3)c2cc1C` [Compound 1, 2-(2-(3-Hydroxypropylamino)-5,6-dimethyl-1H-benzo[d]imidazol-1-yl)-1-(3,5-di-tert-butyl-4-hydroxyphenyl)ethanone] showed an inhibition at 10 µM of 53%. Also, the IC50 in assay [1] (read-out: IC50, PDB-induced NF-κB reporter gene activity) was 70 nM; in assay [1] (read-out: IC50, PDBu-induced NF-κB reporter gene assay (cellular potency)) it was below 100 nM. Moreover, in the assay on IKK-β phosphorylation, the “inhibition of PMA/Ionomycin-induced IKK-β phosphorylation” value is “significantly inhibited”.
